US20200340984A1, “METHODS OF QUANTIFYING CFTR PROTEIN EXPRESSION” (Proteostasis Therapeutics, Inc., priority 2017, published 2020)

Experiments:
CFTR [1] = assay: Western blot analysis of CFTR expression, HT-29 cells; format: cell-based
Protocol: Cells were washed with ice-cold phosphate-buffered saline (PBS) and lysed in Pierce™ immunoprecipitation (IP)-Lysis Buffer (Thermo Fisher Scientific Inc., Grand Island, N.Y.) containing protease inhibitor cocktail (cOmplete™ Mini Protease Inhibitor Cocktail tablets, Roche Diagnostics GmBH, Mannheim, Germany). The cells were incubated with lysis buffer for 30 minutes on ice and centrifuged for 30 minutes at 13,000 rpm. Supernatant was collected and protein concentration was assayed by Pierce™ BCA Protein Assay Kit (Thermo Fisher Scientific). The cell lysates were loaded on a NuPAGE 3%-8% Tris-Acetate Gel (Thermo Fisher Scientific), and transferred onto a nitrocellulose membrane (Trans-Blot® Turbo™ Mini Nitrocellulose Transfer Packs, Bio-Rad, Hercules, Calif.). The membrane was blocked in tris-buffered saline with Tween-20 (TBST) and 5% milk and probed with mouse CFTR antibody (UNC596, 1:500 dilution) at 4° C. with gentle shaking overnight. Next day, membrane was washed three times with (TBST). Then, the membrane was incubated for 2 hours with anti-mouse IgG, horseradish peroxidase (HRP)-linked antibody (Cell Signaling Technology, Beverly, Mass.) at 1:2000 dilution. […]

CFTR mRNA [2] = assay: CFTR mRNA qPCR, HNE-WT cultures; format: cell-based, human; details: qPCR (CFTR/Actin RNA), 10 μM, 24 hours, vs DMSO
Protocol: (§1) Primary human airway epithelial cells of nasal origin (HNEs) from CF donors homozygous for the F508del mutation (HNE CF) and non-CF donors (HNE WT) were purchased from Epithelix Sàrl (Geneva, Switzerland). The cells were cultured and differentiated as previously described (Pranke et al. (2017) Sci Rep. 7(1):7375). The primary cells were apically mucous washed for 30 minutes prior to treatment with the amplifier PTI-CH (1, 3, or 10 μM) and DMSO for 24 hours.
(§2) For isolation of RNA from cells, the filters were washed with PBS at room temperature. Total RNA was isolated using the Qiagen RNeasy Plus Universal Mini kit (Qiagen, Oslo, Norway). […] The RNA was quantified by NanoDrop (Thermo Fisher Scientific).
(§3) For Reverse transcription, 500 ng of total RNA was used for cells and 150 ng of RNA for nasal brushing sample was reverse transcribed using a High-Capacity Transcription Kit (Thermo Fisher Scientific) according to manufacturer's protocol. The CFTR transcript levels were measured using a human-specific CFTR primer (Catalog Number Hs00357011_ml, FAM-labeled Life Technologies). […]
(§4) To further confirm this finding, human nasal epithelial (HNE) cultures obtained from a non-CF (HNE-WT) or CF (HNE-F508del) donor were treated with and amplifier compound. Following 24-hour treatment period, filters were analyzed for either mRNA or protein analyses. […]

F508del CFTR protein = assay: CFTR ELISA, HNE-CF (F508del) cultures; format: cell-based, human; details: HNE-CF (homozygous F508del), 10 μM, 24 hours, vs DMSO
Protocol: as §1
96-well half area microplates (Greiner Bio-One, Monroe, N.C.) were coated with 3 μg/mL of CFTR antibody UNC596 overnight at 4° C. with gentle shaking. Wells were washed 3 times with TBS-T buffer, blocked with SuperBlock™ T20 Blocking Buffer (Thermo Fisher Scientific) and the washing step was repeated. The CFTR standard used was a fusion peptide (SEQ ID NO:1) that is recognized by UNC450 and UNC596 (GenScript, Piscataway, N.J.).
Serial dilutions of CFTR standard, cell lysates, and nasal brushing samples were prepared in IP lysis buffer. […] The assay was read on the EnVision-Multilabel Reader (Perkin Elmer, Waltham, Mass.).
as §4

CFTR [3] = assay: CFTR AlphaLISA, H508 cells; format: cell-based; details: CFTR protein, H508 intestinal carcinoma cell line
CFTR mRNA [4] = assay: CFTR mRNA qPCR, HNE-CF (F508del) cultures; format: cell-based, human; details: qPCR (CFTR/Actin RNA), HNE-CF (homozygous F508del), 10 μM, 24 hours, vs DMSO
Protocol: as §1, §2, §3, §4

O=C(NCCCn1nncc1CO)c1cc(-c2ccccc2)on1 [PTI-CH]
fold changes in CFTR expression (CFTR [1]): 1.4 × | increase in CFTR mRNA expression (CFTR mRNA [2]): approximately 3 fold | increase in CFTR protein (F508del CFTR protein): 1.7 fold | Fold change (PTI-CH/DMSO) (CFTR [3]): 1.3 ± 0.08 | increase in CFTR mRNA expression (CFTR mRNA [4]): approximately 3 fold
